Source: PubChem BioAssay AID493083 (Broad Institute, 2011)
Calls of active or inactive are those of the source.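 The calls were made as follows: active = compounds lowering signal whose fitted AC50 is at most ten times the top tested dose; inconclusive = flat fit with moderate inhibition, or poor curve fit; inactive = the rest.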

The molecules below were run on NIH3T3 R4 HSF-1 GFP reporter, heat shock, 48 h (assay: GFP reporter loss versus dox-driven RFP – NIH3T3 R4 cells, cherry-pick, set 3, dose response (AID 493083)).
Molecule `CCc1ccc(S(=O)(=O)/N=C2\C=C(Nc3ccc(O)cc3)C(=O)c3ccccc32)cc1` has an AC50 of 1.74 µM. Molecule `CCOC(=O)c1c(C)[nH]c2c1-c1ccccc1C(=O)C2=O` has an AC50 of 1.4 µM. Work on `O=S(=O)(c1ccc2c(c1)C(=NO)c1cc(S(=O)(=O)N3CCCCC3)ccc1-2)N1CCCCC1` yielded an AC50 of 2.08 µM. `CCCCS(=O)(=O)/C=C\C=C/S(=O)(=O)CCCC` was tested, and the AC50 was 5.46 µM. With `NNC(=S)NC1CC2CC1C1C=CCC21` (configuration not stated) the AC50 was > 19.5 µM (inactive). In the case of `COc1cccc(-c2nnc3n2N=C(C(C)(C)C)CS3)c1`, the AC50 is reported as > 19.5 µM (inactive). In the case of `CC[C@H]1CN2CCc3cc(OC)c(OC)cc3[C@@H]2C[C@@H]1C[C@H]1NCCc2cc(OC)c(OC)cc21`, the AC50 is reported as 0.526 µM. For `COc1cc(C2CC(c3cccs3)=NN2C(=O)CCl)ccc1OC(F)F` (configuration not stated), the AC50 was 14.8 µM. For `COc1ccc(C[C@H]2NC[C@H](O)[C@H]2OC(C)=O)cc1`, the AC50 was 0.551 µM. Work on `CN=c1scc(-c2ccco2)n1/N=C/c1ccc(O)c(O)c1` yielded an AC50 of 5.23 µM. With `Nc1ncnc2c1ccn2[C@@H]1O[C@H](CO)[C@@H](O)[C@H]1O` the AC50 was 10.5 µM. With `O=C(CCl)Nc1cc(SCC(O)CO)cc([N+](=O)[O-])c1` (configuration not stated) the AC50 was 5.73 µM. `CCOC(=O)Cc1nnc2c(Nc3ccccc3F)nc3nonc3n12` gave an AC50 of 12.4 µM. Molecule `Cn1c(=O)c([N+](=O)[O-])c(Cl)c2ccccc21` has an AC50 of 16.9 µM. `Cc1nn(-c2ccccc2)c(N)c1C(O)(CSc1nccn1C)C(F)(F)F` (configuration not stated) was tested, and the AC50 was > 19.5 µM (inactive). In the case of `Nc1ccc2oc(C3CCCCC3)nc2c1`, the AC50 is reported as > 19.5 µM (inactive). `Cc1cc(C)c2nc(C(F)(F)F)c(C#N)c(N)c2c1` was tested, and the AC50 was > 19.5 µM (inactive). In the case of `COc1ccccc1-c1cc(C(F)(F)F)nc(S(=O)(=O)CCCC(=O)NCc2ccc(F)cc2)n1`, the AC50 is reported as 5.18 µM. `CCOC(=O)/C(=C\c1ccc([N+](=O)[O-])cc1)C(=O)c1cc(C(C)=O)c(Nc2ccccc2)s1` was tested, and the AC50 was 11.7 µM. For `COc1ccc2[nH]c(=O)c(CN(Cc3cccs3)S(=O)(=O)c3c(C)ccc4nsnc34)cc2c1`, the AC50 was > 19.5 µM (inactive). Work on `Cc1cc([N+](=O)[O-])c2ccccc2[n+]1[O-]` yielded an AC50 of 5.71 µM. Molecule `O=S(=O)(C/C(=C/CO)S(=O)(=O)c1ccccc1)c1ccccc1` has an AC50 of 5.86 µM. For `S=C1Cc2ccccc2N1`, the AC50 was 12.4 µM. With `CC(C)(C)c1ccc2c(c1)OC(C(=O)N/N=C\c1ccc[nH]1)CO2` (configuration not stated) the AC50 was 0.848 µM. For `CCOC(=O)C1CCN(C(=O)CC(C)c2ccccc2)CC1` (configuration not stated), the AC50 was > 10 µM (inactive). In the case of `CCN(c1ccccc1)S(=O)(=O)c1cnc[nH]1`, the AC50 is reported as > 19.5 µM (inactive). Work on `C#CC(=O)N(c1cc(OC)ccc1OC)C(C(=O)NC1CCCC1)c1cccs1` (configuration not stated) yielded an AC50 of 5.66 µM. With `NC(=O)C1CCN(CC(=O)Nc2nc(-c3ccccc3)cs2)CC1` the AC50 was > 19.5 µM (inactive). In the case of `O=C1C=C(NCCN2CCOCC2)C(=O)c2cnccc21`, the AC50 is reported as 5.57 µM. `O=C(CCl)Nc1cn(-c2ccccc2)nc1-c1ccc(F)cc1` was tested, and the AC50 was 4.77 µM. With `CCOc1ccc(C(=O)COC(=O)Cc2n[nH]c(=O)c3ccccc23)cc1` the AC50 was > 19.5 µM (inactive). `O=C(CCl)N(c1ccccc1)C1CCCCC1` was tested, and the AC50 was 5.43 µM. With `Cc1ccc(S(=O)(=O)c2ncccc2[N+](=O)[O-])cc1` the AC50 was 5.64 µM. In the case of `Fc1ccc(-n2cc(-c3ccccc3)c3c(N4CCOCC4)ncnc32)cc1`, the AC50 is reported as > 19.5 µM (inactive). In the case of `Cc1ccc(-n2nc(C)c3cc(C(=O)O)sc32)cc1`, the AC50 is reported as > 19.5 µM (inactive). `CC(C)CN=C(NS(=O)(=O)c1ccccc1)C(Cl)(Cl)Cl` showed an AC50 of 16.1 µM. For `Cc1c(NC(=O)C2CC(c3ccc(F)cc3)=NO2)c(=O)n(-c2ccccc2)n1C` (configuration not stated), the AC50 was > 19.5 µM (inactive). With `Nc1nc(F)nc2c1ncn2[C@@H]1O[C@H](CO)[C@@H](O)[C@H]1O` the AC50 was 1.61 µM. `O=C(COC(=O)/C=C/c1ccc(C(F)(F)F)cc1)NC1CC1` was tested, and the AC50 was > 19.5 µM (inactive). With `O=C(Nc1ccccc1Cl)/C(Cl)=C(\Cl)S(=O)c1ccccc1` (configuration not stated) the AC50 was 1.81 µM. Work on `CC12CCC(C/C1=N\N=C1\NC(=O)/C(=C\c3ccc(Cl)cc3)S1)C2(C)C` (configuration not stated) yielded an AC50 of 2.4 µM. `CC(=O)Cn1ncc(Br)c(Br)c1=O` was tested, and the AC50 was 5.62 µM. `OCCCNc1nccc(-c2cc(Nc3cccc(Cl)c3)ncn2)n1` showed an AC50 of 18.7 µM. In the case of `O=C(CCl)Nc1ccc(-c2ccccc2)cc1`, the AC50 is reported as 17.2 µM. With `C=C(C)C(=O)O[C@H]1C/C(C)=C\C(=O)/C=C(\C)[C@H](O)[C@@H]2OC(=O)C(=C)[C@@H]21` the AC50 was 15.4 µM. In the case of `C[C@H]1C[C@@H](C)C(=O)[C@@H]([C@H](O)CC2CC(=O)NC(=O)C2)C1`, the AC50 is reported as 0.336 µM. For `Cc1ccc(NC2=C/C(=N\S(=O)(=O)c3cccs3)c3ccccc3C2=O)c(C)c1`, the AC50 was 1.32 µM.
